From ChEMBL document CHEMBL1201862, “PubChem BioAssay data set” (2004)
Values belong to the molecule of their own block, whether it stands above or below them. Active and inactive are the calls of the source.

Tests used:
Genome polyprotein = Genome polyprotein (Hepatitis C virus, UniProt Q2Q167); test: HCV core protein dimerization inhibitors, dose response, biochemical, TR-FRET (AID 2159); parameters: species or system Hepacivirus hominis;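 further: blocks dimerization of HCV core protein measured by TR-FRET between tagged core106 pairs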
[1] = biological target: Voltage-gated inwardly rectifying potassium channel KCNH2 (Homo sapiens, UniProt Q12809); test: hERG protection from proarrhythmic block, potency, dose response, cell-based, thallium flux (AID 2121); format: ADME
[2] = inhibitors of Vif binding to APOBEC3G peptide, primary screen, biochemical, TR-FRET, GST-Vif 1-94, biotin-A3G peptide, dose response retest (AID 1117319); format: functional;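 further: TR-FRET signal of purified GST-Vif binding a biotinylated A3G peptide; inhibitors lower the FRET signal by blocking Vif and A3G binding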
[3] = THP-1 cell cytotoxicity, dose response, cytotoxicity control for Vif-APOBEC3G degradation inhibitor project, THP-1 cells (AID 1117359); format: functional; settings: Human immunodeficiency virus 1, THP-1
[4] = CellTiter-Glo luminescent dose response of DLD-1 viability loss (AID 1117352); format: functional
[5] = cytotoxicity toward Colo320 cells – cell-based, CellTiter-Glo luminescence, IC50, dose response (AID 1117334); format: functional; settings: COLO 320
[6] = RKO cell viability reduction, dose response, CellTiter-Glo luminescence (AID 1117322); format: functional
[7] = human group III sPLA2 inhibitors, dose response, biochemical, QFRET, IC50 (AID 743457);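 further: green fluorescence rise as the enzyme cleaves BODIPY PC-A2 in liposomes; potency for inhibition of the enzyme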
[8] = SNU-C1 cell viability reduction, dose response, CellTiter-Glo luminescence (AID 1117323); format: functional, cell-based
[9] = cytotoxicity toward HT-29 cells – cell-based, CellTiter-Glo luminescence, IC50, dose response (AID 1117330); format: functional
[10] = cytotoxicity toward HCT116 cells – cell-based, CellTiter-Glo luminescence, IC50, dose response (AID 1117332); format: functional; settings: HCT-116
[11] = HeLa 2N DNA content increase, dose response, cell-based, IC50 (AID 1117349); format: functional
[12] = HeLa 4N DNA content increase, dose response, cell-based, IC50 (AID 1117351); format: functional
[13] = Concentration-dependent survival of SW480 colon cancer line, luminescence detection with CellTiter-Glo, half-maximal inhibitory concentration (AID 1117338); format: functional

Sequence of Voltage-gated inwardly rectifying potassium channel KCNH2 (Q12809 whole entry): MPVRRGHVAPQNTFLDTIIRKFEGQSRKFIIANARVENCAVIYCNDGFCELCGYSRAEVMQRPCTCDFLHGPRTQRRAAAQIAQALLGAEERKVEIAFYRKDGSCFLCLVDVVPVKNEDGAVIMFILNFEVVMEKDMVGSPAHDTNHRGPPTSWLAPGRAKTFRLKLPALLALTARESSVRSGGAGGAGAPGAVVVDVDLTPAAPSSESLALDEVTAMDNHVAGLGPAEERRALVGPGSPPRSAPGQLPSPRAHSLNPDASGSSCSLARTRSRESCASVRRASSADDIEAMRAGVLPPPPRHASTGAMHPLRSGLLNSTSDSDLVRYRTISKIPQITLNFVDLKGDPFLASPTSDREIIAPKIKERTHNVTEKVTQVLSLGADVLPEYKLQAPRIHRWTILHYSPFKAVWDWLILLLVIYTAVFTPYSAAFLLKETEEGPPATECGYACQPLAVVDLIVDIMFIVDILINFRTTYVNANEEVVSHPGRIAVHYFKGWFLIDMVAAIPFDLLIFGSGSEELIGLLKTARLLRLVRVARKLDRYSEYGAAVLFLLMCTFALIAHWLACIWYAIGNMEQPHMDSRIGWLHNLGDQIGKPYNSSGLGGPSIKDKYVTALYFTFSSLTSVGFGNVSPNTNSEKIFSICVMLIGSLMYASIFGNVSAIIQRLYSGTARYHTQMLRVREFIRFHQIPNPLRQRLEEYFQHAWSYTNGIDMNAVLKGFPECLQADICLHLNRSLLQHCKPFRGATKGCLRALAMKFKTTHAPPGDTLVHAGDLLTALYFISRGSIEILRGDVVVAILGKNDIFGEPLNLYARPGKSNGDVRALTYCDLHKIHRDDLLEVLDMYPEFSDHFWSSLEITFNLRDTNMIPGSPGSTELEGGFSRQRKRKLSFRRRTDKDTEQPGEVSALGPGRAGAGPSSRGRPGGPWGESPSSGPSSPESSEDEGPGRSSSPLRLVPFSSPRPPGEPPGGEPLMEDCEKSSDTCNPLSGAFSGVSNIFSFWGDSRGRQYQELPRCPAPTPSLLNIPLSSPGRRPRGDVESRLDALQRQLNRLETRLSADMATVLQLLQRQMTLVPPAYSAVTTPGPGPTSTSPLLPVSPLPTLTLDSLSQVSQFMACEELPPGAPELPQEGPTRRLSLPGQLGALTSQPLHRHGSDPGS
Sequence of Genome polyprotein (Q2Q167 whole entry): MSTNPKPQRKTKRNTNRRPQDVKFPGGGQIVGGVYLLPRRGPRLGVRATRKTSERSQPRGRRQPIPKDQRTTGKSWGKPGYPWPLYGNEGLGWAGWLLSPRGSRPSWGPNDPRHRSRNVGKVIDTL

IC50 (Genome polyprotein): > 49.8 µM (not active)
SMILES: CCCCn1c(SCC(=O)Nc2cc(C)on2)nc2ccccc2c1=O

SMILES: COC(=O)c1c(NS(=O)(=O)c2ccc3ccccc3c2)sc2c1CCCC2
EC50 [1]: 7.18 µM (active)

IC50 [2]: > 100 µM (active)
SMILES: N#Cc1ccccc1NC(=O)CNc1ccc(Cl)c(C(F)(F)F)c1

SMILES: CCOC(=O)C1CCN(C(=O)c2ccc3snnc3c2)CC1
CC50 [3]: > 40 µM (active)

SMILES: Cc1ccc2c(c1)c1c3n2CCNC3CCC1 (centres undefined)
IC50 [4]: > 20 µM (inactive) | IC50 [5]: > 20 µM (inactive) | IC50 [6]: > 20 µM (inactive) | IC50 [7]: > 122 µM (inactive) | IC50 [8]: 2.48 µM (active) | IC50 [9]: > 20 µM (inactive) | IC50 [10]: > 20 µM (inactive) | IC50 [11]: > 10 µM (inactive) | IC50 [12]: > 10 µM (inactive) | IC50 [13]: > 20 µM (inactive)
